Patent publication US9399647B2, “Proteasome activity modulating compounds” (Proteostasis Therapeutics, Inc., priority 2012, dated 2016)
Read-outs that look alike come from different tables or passages of the source.

Molecular target: USP14 (Homo sapiens, UniProt P54578)
Assay: USP14 inhibition assay
Type: biochemical
Excerpt: The IC50 values in the Table below represent the average value from three experimental determinations.
These IC50 values represent the average value from three experimental determinations.

[1] = average value from three experimental determinations, read-out: USP14 IC50
[2] = average value from three experimental determinations, reported as potency bands, read-out: IC50 (USP14 inhibition)

Chain of USP14 (P54578 whole entry): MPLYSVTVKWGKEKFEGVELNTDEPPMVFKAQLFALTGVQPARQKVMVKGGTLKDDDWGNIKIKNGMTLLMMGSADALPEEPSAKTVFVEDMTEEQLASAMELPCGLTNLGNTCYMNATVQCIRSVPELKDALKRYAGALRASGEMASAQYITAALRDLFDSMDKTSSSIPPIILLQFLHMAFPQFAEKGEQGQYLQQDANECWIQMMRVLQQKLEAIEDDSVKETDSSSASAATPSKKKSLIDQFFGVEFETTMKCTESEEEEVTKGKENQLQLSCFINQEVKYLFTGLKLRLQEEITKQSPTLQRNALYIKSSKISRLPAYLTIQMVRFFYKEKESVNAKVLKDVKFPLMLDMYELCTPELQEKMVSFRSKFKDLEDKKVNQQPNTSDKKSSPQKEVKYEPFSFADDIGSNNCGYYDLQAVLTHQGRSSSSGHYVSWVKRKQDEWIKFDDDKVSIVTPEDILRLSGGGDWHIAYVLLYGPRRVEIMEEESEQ
Chain of USP14 (Q13200 whole entry partner): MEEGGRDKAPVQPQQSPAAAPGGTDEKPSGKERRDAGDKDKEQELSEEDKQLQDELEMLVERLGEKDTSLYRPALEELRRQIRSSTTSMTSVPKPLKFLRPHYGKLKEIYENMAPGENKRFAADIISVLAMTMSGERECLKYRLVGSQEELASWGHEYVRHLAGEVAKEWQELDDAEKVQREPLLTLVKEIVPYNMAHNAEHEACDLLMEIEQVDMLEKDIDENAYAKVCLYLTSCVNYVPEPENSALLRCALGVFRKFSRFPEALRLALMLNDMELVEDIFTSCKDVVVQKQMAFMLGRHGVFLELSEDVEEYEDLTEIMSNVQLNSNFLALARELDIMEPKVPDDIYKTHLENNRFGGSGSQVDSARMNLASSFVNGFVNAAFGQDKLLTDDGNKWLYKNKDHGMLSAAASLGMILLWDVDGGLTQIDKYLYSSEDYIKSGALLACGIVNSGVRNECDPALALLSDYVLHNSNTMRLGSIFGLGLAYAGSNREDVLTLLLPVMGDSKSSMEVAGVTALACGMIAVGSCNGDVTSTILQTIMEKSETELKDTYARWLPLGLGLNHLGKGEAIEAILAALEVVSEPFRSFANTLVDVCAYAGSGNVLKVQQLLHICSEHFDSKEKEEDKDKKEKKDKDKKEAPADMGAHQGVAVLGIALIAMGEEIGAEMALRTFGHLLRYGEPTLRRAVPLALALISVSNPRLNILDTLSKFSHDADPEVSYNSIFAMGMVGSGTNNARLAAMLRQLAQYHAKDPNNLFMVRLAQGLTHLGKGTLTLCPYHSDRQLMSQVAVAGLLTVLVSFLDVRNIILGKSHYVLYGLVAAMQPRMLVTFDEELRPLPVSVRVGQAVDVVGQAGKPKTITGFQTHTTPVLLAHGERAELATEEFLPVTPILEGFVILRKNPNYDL
Chain of USP14 (P35998 whole entry partner): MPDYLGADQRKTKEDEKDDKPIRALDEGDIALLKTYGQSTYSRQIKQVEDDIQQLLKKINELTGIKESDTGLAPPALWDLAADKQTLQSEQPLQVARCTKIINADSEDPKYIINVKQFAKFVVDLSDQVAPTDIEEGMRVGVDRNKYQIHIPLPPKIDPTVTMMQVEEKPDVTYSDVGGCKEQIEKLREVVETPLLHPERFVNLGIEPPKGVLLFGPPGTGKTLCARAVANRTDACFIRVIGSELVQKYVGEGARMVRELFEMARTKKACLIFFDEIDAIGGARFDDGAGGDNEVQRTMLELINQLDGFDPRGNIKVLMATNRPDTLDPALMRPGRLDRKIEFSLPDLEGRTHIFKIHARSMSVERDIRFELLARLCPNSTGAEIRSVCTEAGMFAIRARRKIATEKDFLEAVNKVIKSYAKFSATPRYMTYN

SMILES | IC50 [2] [nM] | also measured
CNC(=O)Cc1nc(N(C)C2CC2)c2c3c(sc2n1)CCCC3 [Compound 1, 2-(4-(Cyclopropyl(methyl)amino)-5,6,7,8-tetrahydrobenzo[4,5]thieno[2,3-d]pyrimidin-2-yl)-N-methylacetamide] | – | IC50 [1]: 1100 nM
CN(c1nc(CC(=O)O)nc2sc3c(c12)CCCC3)C1CC1 [Compound 2, 2-(4-(Cyclopropyl(methyl)amino)-5,6,7,8-tetrahydrobenzo[4,5]thieno[2,3-d]pyrimidin-2-yl)acetic acid] | – | IC50 [1]: 1600 nM
CN(C)C(=O)Cc1nc(N(C)C2CC2)c2c3c(sc2n1)CCCC3 [Compound 3, 2-(4-(Cyclopropyl(methyl)amino)-5,6,7,8-tetrahydrobenzo[4,5]thieno[2,3-d]pyrimidin-2-yl)-N,N-dimethylacetamide] | – | IC50 [1]: 500 nM
COCc1nc(N(C)C2CC2)c2c3c(sc2n1)CCCC3 [Compound 4, Cyclopropyl-(2-methoxymethyl-5,6,7,8-tetrahydro-benzo[4,5]thieno[2,3-d]pyrimidin-4-yl)-methyl-amine] | – | IC50 [1]: 7500 nM
CN(c1nc(CC(N)=O)nc2sc3c(c12)CCCC3)C1CC1 [Compound 5, 2-(4-(Cyclopropyl(methyl)amino)-5,6,7,8-tetrahydrobenzo[4,5]thieno[2,3-d]pyrimidin-2-yl)acetamide] | < 1000 | –
CN(c1nc(CC(=O)N2CCCC2)nc2sc3c(c12)CCCC3)C1CC1 [Compound 6, 2-[4-(Cyclopropyl-methyl-amino)-5,6,7,8-tetrahydro-benzo[4,5]thieno[2,3-d]pyrimidin-2-yl]-1-pyrrolidin-1-yl-ethanone] | < 1000 | –
CN(c1nc(CC(=O)N2CCC(F)(F)C2)nc2sc3c(c12)CCCC3)C1CC1 [Compound 7, 2-[4-(Cyclopropyl-methyl-amino)-5,6,7,8-tetrahydro-benzo[4,5]thieno[2,3-d]pyrimidin-2-yl]-1-(3,3-difluoro-pyrrolidin-1-yl)-ethanone] | 1000 to 5000 | –
CN(C)C1CCN(C(=O)Cc2nc(N(C)C3CC3)c3c4c(sc3n2)CCCC4)C1 (centres unmarked) [Compound 8, 2-[4-(Cyclopropyl-methyl-amino)-5,6,7,8-tetrahydro-benzo[4,5]thieno[2,3-d]pyrimidin-2-yl]-1-(3-dimethylamino-pyrrolidin-1-yl)-ethanone] | < 1000 | –
CN(c1nc(CC(=O)N2CCOCC2)nc2sc3c(c12)CCCC3)C1CC1 [Compound 9, 2-[4-(Cyclopropyl-methyl-amino)-5,6,7,8-tetrahydro-benzo[4,5]thieno[2,3-d]pyrimidin-2-yl]-1-morpholin-4-yl-ethanone] | < 1000 | –
CN1CCN(C(=O)Cc2nc(N(C)C3CC3)c3c4c(sc3n2)CCCC4)CC1 [Compound 10, 2-[4-(Cyclopropyl-methyl-amino)-5,6,7,8-tetrahydro-benzo[4,5]thieno[2,3-d]pyrimidin-2-yl]-1-(4-methyl-piperazin-1-yl)-ethanone] | < 1000 | –
CN(c1nc(CC(=O)N2CCC(F)(F)CC2)nc2sc3c(c12)CCCC3)C1CC1 [Compound 11, 2-[4-(Cyclopropyl-methyl-amino)-5,6,7,8-tetrahydro-benzo[4,5]thieno[2,3-d]pyrimidin-2-yl]-1-(4,4-difluoro-piperidin-1-yl)-ethanone] | 1000 to 5000 | –
CN(c1nc(CC(=O)N2CC(O)C2)nc2sc3c(c12)CCCC3)C1CC1 [Compound 12, 2-(4-(Cyclopropyl(methyl)amino)-5,6,7,8-tetrahydrobenzo[4,5]thieno[2,3-d]pyrimidin-2-yl)-1-(3-hydroxyazetidin-1-yl)ethanone] | < 1000 | –
CC(=O)N1CCN(C(=O)Cc2nc(N(C)C3CC3)c3c4c(sc3n2)CCCC4)CC1 [Compound 13, 1-(4-Acetyl-piperazin-1-yl)-2-[4-(Cyclopropyl-methyl-amino)-5,6,7,8-tetrahydro-[1]benzothieno[2,3-d]pyrimidin-2-yl]-ethanone] | < 1000 | –
CN(c1nc(CC(=O)N2CCC(=O)CC2)nc2sc3c(c12)CCCC3)C1CC1 [Compound 14, 1-{2-[4-(Cyclopropyl-methyl-amino)-5,6,7,8-tetrahydro-benzo[4,5]thieno[2,3-d]pyrimidin-2-yl]-acetyl}-piperidin-4-one] | – | IC50: < 1000 nM
CN(c1nc(CC(=O)N2CCC2)nc2sc3c(c12)CCCC3)C1CC1 [Compound 15, 1-(Azetidin-1-yl)-2-(4-(cyclopropyl(methyl)amino)-5,6,7,8-tetrahydrobenzo[4,5]thieno[2,3-d]pyrimidin-2-yl)ethanone] | < 1000 | –
CN(c1nc(CC(=O)NCc2ccncc2)nc2sc3c(c12)CCCC3)C1CC1 [Compound 16] | 1000 to 5000 | –
CN(c1nc(CC(=O)NCCc2ccccn2)nc2sc3c(c12)CCCC3)C1CC1 [Compound 17] | 1000 to 5000 | –
CN(c1nc(CC(=O)NCc2ccccn2)nc2sc3c(c12)CCCC3)C1CC1 [Compound 18] | 1000 to 5000 | –
CN(c1nc(CC(=O)NCc2cccnc2)nc2sc3c(c12)CCCC3)C1CC1 [Compound 19] | 1000 to 5000 | –
CN(c1nc(CC(=O)N2CC[C@H](C(C)(C)O)C2)nc2sc3c(c12)CCCC3)C1CC1 [Compound 20, (S)-2-(4-(Cyclopropyl(methyl)amino)-5,6,7,8-tetrahydrobenzo[4,5]thieno[2,3-d]pyrimidin-2-yl)-1-(3-(2-hydroxypropan-2-yl)pyrrolidin-1-yl)ethanone] | < 1000 | –
CN(c1nc(CC(=O)Nc2ccon2)nc2sc3c(c12)CCCC3)C1CC1 [Compound 21] | 1000 to 5000 | –
CN(c1nc(CC(=O)NCCc2ccncc2)nc2sc3c(c12)CCCC3)C1CC1 [Compound 22] | > 5000 | –
CN(c1nc(CC(=O)NCCc2cccnc2)nc2sc3c(c12)CCCC3)C1CC1 [Compound 23] | 1000 to 5000 | –
CN(c1nc(CC(=O)N2CC[C@H](N(C)C)C2)nc2sc3c(c12)CCCC3)C1CC1 [Compound 24, 2-[4-(Cyclopropyl-methyl-amino)-5,6,7,8-tetrahydrobenzo[4,5]thieno[2,3-d]pyrimidin-2yl]-1-((S)-3-dimethylamino-pyrrolidin-1-yl)-ethanone] | < 1000 | –
CN(c1nc(CC(=O)N2CCC(S(C)(=O)=O)C2)nc2sc3c(c12)CCCC3)C1CC1 (centres unmarked) [Compound 25, 2-[4-(Cyclopropyl-methyl-amino)-5,6,7,8-tetrahydro-benzo[4,5]thieno[2,3-d]pyrimidin-2yl]-1-(3-methanesulfonyl-pyrrolidin-1-yl)-ethanone] | < 1000 | –
CN(c1nc(CC(=O)N2CCCCC2)nc2sc3c(c12)CCCC3)C1CC1 [Compound 26, 2-[4-(Cyclopropyl-methyl-amino)-5,6,7,8-tetrahydro-benzo[4,5]thieno[2,3-d]pyrimidin-2yl]-1-piperidin-1-yl-ethanone] | 1000 to 5000 | –
CN(c1nc(CC(=O)N2CCC(O)CC2)nc2sc3c(c12)CCCC3)C1CC1 [Compound 27, 2-[4-(Cyclopropyl-methyl-amino)-5,6,7,8-tetrahydro-benzo[4,5]thieno[2,3-d]pyrimidin-2-yl]-1-(4-hydroxy-piperidin-1-yl)-ethanone] | < 1000 | –
CC(C)NC(=O)Cc1nc(N(C)C2CC2)c2c3c(sc2n1)CCCC3 [Compound 28, 2-[4-(Cyclopropyl-methyl-amino)-5,6,7,8-tetrahydro-benzo[4,5]thieno[2,3-d]pyrimidin-2-yl]-N-isopropyl-acetamide] | 1000 to 5000 | –
CN(c1nc(CC(=O)N2CCC(O)C2)nc2sc3c(c12)CCCC3)C1CC1 (centres unmarked) [Compound 29, 2-[4-(Cyclopropyl-methyl-amino)-5,6,7,8-tetrahydro-benzo[4,5]thieno[2,3-d]pyrimidin-2-yl]-1-(3-hydroxy-pyrrolidin-1-yl)-ethanone] | < 1000 | –
